We go through 1 compound from US20120065199A1, “SUBSTITUTED QUINOLINES FOR USE AS VEGF INHIBITORS” (CLANOTECH AB, priority 2009, published 2012).

Test [1] relates to PAE cells expressing VEGFR2. Put plainly: Chemotaxis assay (modified Boyden chamber), PAE/VEGFR-2 toward VEGF-A. Format: cell-based, porcine. Particulars: Sus scrofa, PAE; 10 μM compound; VEGF-A as chemo-attractant; absence of serum; read-out: Chemotaxis: VEGFR-2 inhibition of cell migration (%) at 10 μM compound concentration. How it is done: (§1) Additionally, the effect of the compounds was tested in this capacity of influencing chemotaxis. The test compounds were tested in porcine aorta endothelial (PAE) cells expressing VEGFR2 and VEGFR3 (PAE/VEGFR-2 and PAE/VEGFR-3). The method used is a modified Boyden chamber assay. The migration of the PAE cells expressing VEGFR2 and VEGFR3 receptors toward VEGF-A and VEGF-C respectively used as chemo-attractant was studied through micropore polycarbonate filter and was scored in the absence of serum. The assay was performed in the presence of compounds at 10 μM.
(§2) In Table 1, data from both the cell shape assay and the chemotaxis assay are shown. Thus, under “Cell Shape: PAE/VEGFR-2 with VEGF antagonist conc. (μM)” and “Cell Shape: PAE/VEGFR-3 with VEGF antagonist conc. (μM)” the concentration of the indicated inventive compound that gave restitution of cell morphology in the cell shape assay is shown. Data under “Chemotaxis: VEGFR-2% inhibition of cell migration” and “Chemotaxis: VEGFR-3% inhibition of cell migration” show the percentage inhibition of PAE cells expressing VEGFR-2 or 3 in the presence of 10 μM of the indicated inventive compound.

For test [2], the system named is T241 wt mouse fibrosarcoma tumor cells. Put plainly: Tumor synograft model. Format: in vivo, C57B1 mice. The following applies: oral administration 25 mg/kg/day for 10 days, subcutaneous T241 tumors in mice, compared with vehicle. How it is done: FIG. 1 is a plot of the tumor volume (mL) in mice having received subcutaneously implanted T241 wt mouse fibrosarcoma tumor cells, as a function of days of therapy by oral administration at 25 mg/kg/day of the compound of Example 1 of the invention. This is compared to administration of vehicle only.
Female 6-week-old C57B1 mice were used for tumor studies. […] T241 wt mouse fibrosarcoma tumor cells growing in logarithmic phase were harvested and resuspended in media, and a single cell solution in a volume of 100 μL was implanted subcutaneously at the right flank of each animal. 6 Mice were used in the treated groups and 6 mice were used in the control groups. Systemic treatment by oral administration injections with either 50 μl of vehicle or the inventive compound (the compound of Example 1) (25 mg/kg/day) was begun at day at day 0 (zero). The inventive compound was administrated for 10 days. Visible tumors were present day 5-10 after implantation. Primary tumors were measured with digital calipers on the days indicated. Tumor volumes were calculated according to the formula: Length×width^2×0.52 as reported. […] It takes a significant number of days for the treated animals to reach the same tumor volume as the vehicle treated animals.

The test system of test [3] is PAE cells expressing VEGFR3. Put plainly: Chemotaxis assay (modified Boyden chamber), PAE/VEGFR-3 toward VEGF-C. Type of test: cell-based, porcine. Particulars: Sus scrofa, 10 μM compound, VEGF-C as chemo-attractant, absence of serum, read-out: Chemotaxis: VEGFR-3 inhibition of cell migration (%) at 10 μM compound concentration. The method, then:
as §1, §2

The subject of another test is PAE/VEGFR-2 cells. Put plainly: Cell shape assay, PAE/VEGFR-2 cells with VEGF-A. Format: cell-based, porcine. How it is done:
One of the used assays comprised a culture of PAE/VEGFR-2 and PAE/VEGFR3 cells. Morphological changes of the cells were recorded microscopically after addition of VEGF-A and VEGF-C respectively, followed by the test compound at a final concentration up to 100 μM. Growth inhibitions of the PAE/VEGFR-2 cells were detected in the presence of the compound of Example 1 according to the invention at 10 μM or lower. Furthermore, the inventive compounds were tested in PAE/VEGFR-3 cells and morphological changes of the cells were recorded microscopically after addition of the VEGF-C, followed by the test compound at a final concentration up to 100 μM. Growth inhibitions of the PAE/VEGFR-3 cells were detected in the presence of several of Examples according to the invention. The compounds were tested at 10, 50 and 100 μM. The effect of the test compounds in Table 1 is expressed as concentration of compound that inhibits the cell morphology induced by VEGF A and VEGF C. No effect means that no morphological changes were seen up to 100 μM compound concentrations.
as §2

In the case of `CNC(=O)c1ccc2ncc(C(=O)OCn3ccnc3)c(Nc3ccc(OC)cc3)c2c1` [Example 1, (1H-imidazol-1-yl)methyl 4-(4-methoxyphenylamino)-6-(methylcarbamoyl)-quinoline-3-carboxylate], the values for the inhibition at 10 µM in test [1] and in test [3] were 52% and 53%, respectively. In addition, the “Tumor volume, effectiveness in the animal model (FIG. 1)” value in test [2] is listed as “convincing results for its effectiveness”. For the same compound, the minimal effective concentration in the test on PAE/VEGFR-2 cells (Sus scrofa, VEGF-A induced cell morphology, tested at 10, 50 and 100 μM, No effect = no morphological changes up to 100 μM, read-out: Cell Shape: PAE/VEGFR-2 with VEGF antagonist conc. (μM) that gives inhibition) was 10 µM. The “Concentration at which growth inhibitions of the PAE/VEGFR-2 cells were detected” value in the test with PAE/VEGFR-2 cells (after addition of VEGF-A, final concentration up to 100 μM) is at most 10 µM.
